Structures are written as SMILES. Read-outs that look alike come from different tables or passages of the source. *1 amine or outer side, *2 acyl side, *3 side chain or, on linkers, in order; H or OH if unused. Where a SMILES comes first, the peptide text is derived from it. Bridges are numbered along the chain shown (N, C = ends). [ ]: non-standard residue; d: D form. The star is where a group is joined. X4 = O=C(O)CN1CCN(CC(=O)O)CCN(CC(=O)NCCCOCCOCCOCCCN*)CCN(CC(=O)O)CC1; X1 = NC(=O)CC[C@H](N[*:1])C(=O)C[C@@H](Cc1ccccc1)C(=O)[*:2]; DOTA = O=C(O)CN1CCN(CC(=O)O)CCN(CC(=O)*)CCN(CC(=O)O)CC1; Maleimide(3,4-diyl) = O=C1NC(=O)C([*:2])=C1[*:1]; Suc = O=C(CCC(=O)[*:2])[*:1]; 4Amb = NCc1ccc(C(=O)O)cc1; hCys = N[C@@H](CCS)C(=O)O; Nle = CCCC[C@H](N)C(=O)O; Hexanoyl = CCCCCC(=O)*; AEEA = NCCOCCOCC(=O)O

For experiment [1], the target named is T1, FAP-expressing human WI-38 fibroblasts (Homo sapiens, UniProt Q12884).
T1 construct: FAP-expressing human WI-38 fibroblasts (ECACC) were cultured in EMEM; host or cells: WI-38 human fibroblasts
Description: Competitive FACS binding assay.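 Further: flow cytometry read-out of median Cy5 fluorescence on the cells, plotted versus test compound concentration, with IC50 derived by four-parameter logistic curve fitting.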 In general terms: Flow cytometry measures light scatter and fluorescence of single cells or particles in a stream.

Another experiment concerns the target T2, Recombinant human FAP (Homo sapiens, UniProt Q12884).
T2 construct: purchased R&D systems 3715-SE
The experiment is described as follows: FRET-based FAP protease activity assay. Type of experiment: biochemical.

Setting [2] is: competition with 3 nM Cy5-labeled compound, WI-38 fibroblasts, 4° C., 1 hour, read-out: pIC50 Category (FACS) (converted).
Where [3] appears, read: recombinant human FAP, FRET-peptide substrate, 37° C., read-out: pIC50 Category (Activity) (converted).
Where [4] appears, read: read-out: pIC50 (highest activity categories, FACS binding) (converted).
Setting [5] is: read-out: pIC50 (highest activity categories, FAP activity) (converted).

T1 sequence (Q12884 whole entry): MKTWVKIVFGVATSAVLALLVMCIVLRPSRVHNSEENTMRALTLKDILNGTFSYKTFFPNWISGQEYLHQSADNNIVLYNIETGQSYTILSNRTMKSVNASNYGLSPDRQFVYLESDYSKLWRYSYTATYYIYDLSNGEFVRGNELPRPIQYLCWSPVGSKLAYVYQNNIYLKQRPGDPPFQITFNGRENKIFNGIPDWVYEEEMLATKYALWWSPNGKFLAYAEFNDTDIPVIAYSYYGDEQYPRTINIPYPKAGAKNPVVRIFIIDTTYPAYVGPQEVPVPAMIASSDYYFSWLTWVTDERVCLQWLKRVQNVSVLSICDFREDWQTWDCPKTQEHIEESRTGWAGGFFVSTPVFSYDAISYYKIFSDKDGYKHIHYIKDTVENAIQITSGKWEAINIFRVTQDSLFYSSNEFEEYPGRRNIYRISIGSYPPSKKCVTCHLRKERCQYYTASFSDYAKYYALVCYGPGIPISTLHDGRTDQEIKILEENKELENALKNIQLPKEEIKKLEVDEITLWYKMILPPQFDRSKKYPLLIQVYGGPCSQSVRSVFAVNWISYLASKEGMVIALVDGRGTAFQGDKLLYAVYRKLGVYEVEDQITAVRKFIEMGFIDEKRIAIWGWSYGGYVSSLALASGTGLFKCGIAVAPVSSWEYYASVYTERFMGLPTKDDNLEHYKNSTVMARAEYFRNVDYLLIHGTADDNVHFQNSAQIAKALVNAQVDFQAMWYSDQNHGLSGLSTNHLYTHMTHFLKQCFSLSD
T2 sequence (Q12884 26-760 limits assumed): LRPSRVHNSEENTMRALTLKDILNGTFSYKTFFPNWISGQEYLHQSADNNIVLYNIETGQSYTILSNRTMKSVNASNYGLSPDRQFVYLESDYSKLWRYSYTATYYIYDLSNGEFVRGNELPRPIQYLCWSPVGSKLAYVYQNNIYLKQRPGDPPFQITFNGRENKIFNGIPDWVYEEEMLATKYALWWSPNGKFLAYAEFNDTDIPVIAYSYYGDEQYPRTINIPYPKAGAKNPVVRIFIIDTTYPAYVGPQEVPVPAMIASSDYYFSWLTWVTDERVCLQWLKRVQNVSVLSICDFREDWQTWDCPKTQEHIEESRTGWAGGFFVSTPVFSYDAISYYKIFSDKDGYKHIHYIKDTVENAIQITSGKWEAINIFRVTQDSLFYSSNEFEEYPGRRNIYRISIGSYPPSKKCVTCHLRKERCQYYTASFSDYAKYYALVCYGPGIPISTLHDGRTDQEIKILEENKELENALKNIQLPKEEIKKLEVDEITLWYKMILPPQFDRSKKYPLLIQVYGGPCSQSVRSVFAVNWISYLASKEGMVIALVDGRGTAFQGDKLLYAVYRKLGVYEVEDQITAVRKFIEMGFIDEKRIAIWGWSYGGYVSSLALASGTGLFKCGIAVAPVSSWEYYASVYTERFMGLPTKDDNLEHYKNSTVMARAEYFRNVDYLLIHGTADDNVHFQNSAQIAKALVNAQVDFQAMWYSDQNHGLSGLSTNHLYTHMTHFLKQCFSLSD

For the molecule `CCCCCC(=O)N[C@H]1CSC2=C(SC[C@@H](C(=O)N[C@@H](CC(=O)O)C(N)=O)NC(=O)[C@H](Cc3ccccc3)NC(=O)[C@H](CCC(N)=O)NC(=O)[C@H]([C@@H](C)O)NC(=O)[C@@H]3CCCN3C(=O)[C@@H]3CCCN3C1=O)C(=O)NC2=O` [Compound 2001, Hex-[Cys(mli)-Pro-Pro-Thr-Gln-Phe-Cys]-Asp-NH2] (HELM PEPTIDE1{[CCCCCC(=O)[*:2]].C.P.P.T.Q.F.C.D.[am]}|CHEM1{[O=C1NC(=O)C([*:2])=C1[*:1]]}$PEPTIDE1,CHEM1,2:R3-1:R1|PEPTIDE1,CHEM1,8:R3-1:R2$$$V2.0), the IC50 (in experiment [1] (setting [2]); at Recombinant human FAP (setting [3])) was below 100 nM throughout.

Take `CCCCCC(=O)N[C@H]1CCSSCC[C@@H](C(=O)N[C@@H](CC(=O)O)C(N)=O)NC(=O)[C@H](Cc2ccccc2)NC(=O)[C@H](CCC(N)=O)NC(=O)[C@H]([C@@H](C)O)NC(=O)[C@@H]2CCCN2C(=O)[C@@H]2CCCN2C1=O` [Compound 2002, Hex-[Hcy-Pro-Pro-Thr-Gln-Phe-Hcy]-Asp-NH2] (Hexanoyl-[hCys]PPTQF[hCys]D-NH2; disulfide 1-7): the IC50 (in experiment [1] (setting [2]); on Recombinant human FAP (setting [3])) was below 100 nM in each case.

With `CCCC[C@H](NC(=O)CN1CCN(CC(=O)O)CCN(CC(=O)O)CCN(CC(=O)O)CC1)C(=O)N[C@H]1CSC2=C(SC[C@@H](C(=O)N[C@@H](CC(=O)O)C(N)=O)NC(=O)[C@H](Cc3ccccc3)CC(=O)[C@H](CCC(N)=O)NC(=O)[C@H]([C@@H](C)O)NC(=O)[C@@H]3CCCN3C(=O)[C@@H]3CCCN3C1=O)C(=O)NC2=O` [Compound 2003, DOTA-Nle-[Cys(mli)-Pro-Pro-Thr-Gln-Phe-Cys]-Asp-NH2] ({DOTA}-[Nle]CPPT[X1]CD-NH2; linker 2-7 via Maleimide(3,4-diyl)), the IC50 (in experiment [1] (setting [2]); at Recombinant human FAP (setting [3])) was below 100 nM throughout.

Turning to `CCCC[C@H](NC(=O)COCCOCCNC(=O)CN1CCN(CC(=O)O)CCN(CC(=O)O)CCN(CC(=O)O)CC1)C(=O)N[C@H]1CSC2=C(SC[C@@H](C(=O)N[C@@H](CC(=O)O)C(N)=O)NC(=O)[C@H](Cc3ccccc3)CC(=O)[C@H](CCC(N)=O)NC(=O)[C@H]([C@@H](C)O)NC(=O)[C@@H]3CCCN3C(=O)[C@@H]3CCCN3C1=O)C(=O)NC2=O` [Compound 2004, DOTA-O2Oc-Nle-[Cys(mli)-Pro-Pro-Thr-Gln-Phe-Cys]-Asp-NH2] ({DOTA-AEEA}-[Nle]CPPT[X1]CD-NH2; linker 2-7 via Maleimide(3,4-diyl)), the IC50 (in experiment [1] (setting [2]); in experiment [1] (setting [4]); at Recombinant human FAP (setting [5]); at Recombinant human FAP (setting [3])) was below 100 nM throughout.

With `CCCC[C@H](NC(=O)CCC(=O)NCCCOCCOCCOCCCNC(=O)CN1CCN(CC(=O)O)CCN(CC(=O)O)CCN(CC(=O)O)CC1)C(=O)N[C@H]1CSC2=C(SC[C@@H](C(=O)N[C@@H](CC(=O)O)C(N)=O)NC(=O)[C@H](Cc3ccccc3)CC(=O)[C@H](CCC(N)=O)NC(=O)[C@H]([C@@H](C)O)NC(=O)[C@@H]3CCCN3C(=O)[C@@H]3CCCN3C1=O)C(=O)NC2=O` [Compound 2005, DOTA-Ttds-Nle-[Cys(mli)-Pro-Pro-Thr-Gln-Phe-Cys]-Asp-NH2], the IC50 (in experiment [1] (setting [2]); in experiment [1] (setting [4]); on Recombinant human FAP (setting [5]); on Recombinant human FAP (setting [3])) was below 100 nM throughout.

Take `CCCC[C@H](NC(=O)CCC(=O)NCCCOCCOCCOCCCNC(=O)CN1CCN(CC(=O)O)CCN(CC(=O)O)CCN(CC(=O)O)CC1)C(=O)N[C@H]1CSC2=C(SC[C@@H](C(=O)N[C@@H](CC(=O)O)C(=O)NCc3ccc(C(=O)N[C@@H](CCCNC(=N)N)C(N)=O)cc3)NC(=O)[C@H](Cc3ccccc3)CC(=O)[C@H](CCC(N)=O)NC(=O)[C@H]([C@@H](C)O)NC(=O)[C@@H]3CCCN3C(=O)[C@@H]3CCCN3C1=O)C(=O)NC2=O` [Compound 2006, DOTA-Ttds-Nle-[Cys(mli)-Pro-Pro-Thr-Gln-Phe-Cys]-Asp-Pamb-Arg-NH2] ({X4-Suc}-[Nle]CPPT[X1]CD[4Amb]R-NH2; linker 2-7 via Maleimide(3,4-diyl)): the IC50 (in experiment [1] (setting [2]); at Recombinant human FAP (setting [3])) was below 100 nM throughout.

Turning to `CCCC[C@H](NC(=O)CCC(=O)NCCCOCCOCCOCCCNC(=O)CN1CCN(CC(=O)O)CCN(CC(=O)O)CCN(CC(=O)O)CC1)C(=O)N[C@H]1CSC2=C(SC[C@@H](C(=O)O)NC(=O)[C@H](Cc3ccccc3)CC(=O)[C@H](CCC(N)=O)NC(=O)[C@H]([C@@H](C)O)NC(=O)[C@@H]3CCCN3C(=O)[C@@H]3CCCN3C1=O)C(=O)NC2=O` [Compound 2008, DOTA-Ttds-Nle-[Cys(mli)-Pro-Pro-Thr-Gln-Phe-Cys]-OH], the IC50 (in experiment [1] (setting [2]); at Recombinant human FAP (setting [3])) was below 100 nM each time.

As to `CCCC[C@H](NC(=O)CCC(=O)NCCCOCCOCCOCCCNC(=O)CN1CCN(CC(=O)O)CCN(CC(=O)O)CCN(CC(=O)O)CC1)C(=O)N[C@H]1CSC2=C(SC[C@@H](C(=O)NCCC(=O)O)NC(=O)[C@H](Cc3ccccc3)CC(=O)[C@H](CCC(N)=O)NC(=O)[C@H]([C@@H](C)O)NC(=O)[C@@H]3CCCN3C(=O)[C@@H]3CCCN3C1=O)C(=O)NC2=O` [Compound 2009, DOTA-Ttds-Nle-[Cys(mli)-Pro-Pro-Thr-Gln-Phe-Cys]-Bal-OH], the IC50 (in experiment [1] (setting [2]); at Recombinant human FAP (setting [3])) was below 100 nM throughout.

(Values after patent US20240115745A1, “COMPOUNDS COMPRISING A FIBROBLAST ACTIVATION PROTEIN LIGAND AND USE THEREOF” (3B PHARMACEUTICALS GMBH, priority 2021, published 2024).)
